According to patent publication US11105794B2, “In vitro nephrotoxicity screening assay” (Hoffmann-La Roche Inc., priority 2016, dated 2021):
l = locked nucleic acid (LNA); d = 2'-deoxy (DNA)

Assays:
A549 cells [1] = experiment: Intracellular ATP assay, A549 cells transfected with oligonucleotide; type: cell-based, human; conditions: A549, 48 hours after transfection;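 further: ATP as percent of saline control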
Protocol: (§1) A549 cells (ATCC CCL-185) were cultivated according to the manufacturer's instructions in A549 medium [F-12K Nut Mix (Gibco, 21127-022), 1% penicillin/streptomycin (Gibco: 15140-122), 10% FBS (Gibco 16000-044)].
(§2) Prior to treatment with oligonucleotides the A549 cells were seeded in 96 well plates at 3′000 cells per well in A549 regular medium and grown until 60% confluence. […]
Each sample was tested in triplicate.
(§3) A549 were cultivated as described in the “Materials and methods” section. At after at 50-60% confluence the oligonucleotides were transfected into the cells using 0.5 μl Lipofectamin (Invitrogen, 11668-019) in 25 μl OptiMEM® (GIBCO 31985062) and 1 ng or 10 ng oligonucleotide in the same volume OptiMEM. The cells were incubated over night at 37° C. The medium was changed using A459 regular medium+10 ng/ml EGF. 48 hours after transfection the medium was collected for EGF measurements and the cells were harvested for ATP measurements.

[2] = tested on: Primary human hepatocytes; experiment: EGF assay, culture media of primary human hepatocytes; type: cell-based; conditions: 10 ng/ml EGF in medium;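 further: values as percent of saline vehicle control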
Protocol: Cryopreserved human hepatocytes were suspended in William's Medium E (WME) without phenol red (Sigma W-1878) supplemented with 10% fetal calf serum, penicillin (100 U/ml), streptomycin (0.1 mg/ml) at a density of approx. 1×10^6 cells/ml and seeded into collagen-coated 96-well plates (Becton Dickinson AG, Allschwil, Switzerland) at a density of 0.4×10^5 cells/well. Cells were pre-cultured for 3 to 4 h allowing for attachment to cell culture plates before start of treatment with oligonucleotides.
Before oligonucleotide treatment the seeding medium was replaced by 90 μl of serum free WME.
The total volume of each well was 100 μl. PBS served as vehicle control.
Human primary hepatocytes were cultivated as described in the “Materials and methods” section with addition of 10 ng/ml of EGF to the medium. At confluence the cells were treated with oligonucleotide as described in the “Materials and methods” section, in concentrations of 10 or 100 μM.
The medium was obtained at day 3, and the EGF level was measured according to the assay described in the “Materials and methods” section.

[3] = tested on: Wistar Han Crl:WI(Han) male rats; experiment: In vivo nephrotoxicity in rats
Protocol: Purpose bred Wistar Han Crl:WI(Han) male rats obtained from Charles River Laboratories at 7 to 8 weeks of age were divided into groups of 4 (table 1, exp. A) or 8 (table 1, exp. B) based on body weight and acclimatized for at least 5 days before dosing. The animals were housed under standard environmental conditions ([…], relative humidity 50±20%, a light/dark cycle 12 h/12 h, pelleted food and water ad libitum), were offered enriched environment in an AAALAC accredited facility and were regularly and carefully monitored. All procedures were in accordance with the respective local regulations and according to the animal permissions granted by the Institutional Animal Care and Use Committee. Test compounds were formulated in isotonic sterile saline, sterile filtered (0.22 μm), and dosed at 40 mg/kg on days 1 and 8 (2.5 ml/kg) in the intrascapular region. Control group animals received saline as vehicle control. On day 15 animals were orally administered tap water (10 ml/kg), and urine was collected on ice for 6 hours in metabolic cages. […] On day 15 the rats were sacrificed by an intraperitoneal injection of pentobarbital and exsanguinated. Kidney cortex samples were collected and fixed by immersion in 10% neutral buffered formalin, embedded in paraffin, sectioned to 5 μm and stained with hematoxylin and eosin (H&). The H&E sections were then scanned at 20× magnification using an Aperio ScanScope AT™ (Leica Biosystems) scanner and pictures were then captured via ImageScope™ software from the scanned images. One or more of the following parameters were assessed kidney weight, serum creatinine, urine protein, KIM-1 protein in urine, KIM-1 mRNA, kidney degeneration/regeneration and relative tubulotoxicity grade.

A549 cells [4] = experiment: EGF assay, A549 cells transfected with oligonucleotide; type: cell-based, human; conditions: A549, 48 hours after transfection;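 further: values as percent of saline control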
Protocol: as §1, §2, §3

PCSK9 mRNA = experiment: Target knock down (PCSK9 mRNA levels) in PTEC-TERT1 cells; type: cell-based, human; conditions: normalized to PPIB
Protocol: For assessment of the target knock down (PCSK9 mRNA levels) total mRNA was extracted from the cells adding 100 μl of 1× RNA lysis mixture (QuantiGene® Sample Processing Kit, QS0101) directly into the wells according to the manufacturer's instructions. RNA lysis mixtures were kept at −80° C. until analysis. For gene expression analysis, 20 μl of lysates were mixed with an mRNA-capture magnetic beads sets (Panomics QuantiGene® Plex Set catalog #12697), incubated overnight, processed for branched DNA amplification and analyzed according to the manufacturer's instructions (Panomics QuantiGene® Plex Assay kit, QP1015). The PPIB probe was used as housekeeping gene for normalization. Average Fluoresence Intensity (FI) and standard deviation of 3 biological replicates were calculated and normalized on vehicle control. The results are shown in table 11, and represent the average of three identical treatments.

PTEC-TERT1 cells [5] = experiment: EGF assay, supernatant of PTEC-TERT1 cells
Protocol: (§4) Prior to treatment with oligonucleotides the PTEC-TERT1 were seeded into collagen I-coated 96-well plates (Corning, 356407) at a density of 40 000 and 20 000 cells/well respectively in PTEC medium and grown until confluence.
(§5) Oligonucleotides were dissolved in PBS and added to the cell culture at the given concentration, such as 10, 30 or 100 μM. The total volume of each well was 100 μl. PBS served as vehicle control.
(§6) When extra cellular markers, like EGF and KIM-1, were analyzed following the oligonucleotide treatment the medium was collected and stored at −20° C. until further analysis. […] The collected medium was stored at −20° C.
(§7) For analysis of human EGF, cell supernatants were thawed on ice, diluted 1:2 and 1:10 in sample dilution buffer (BioRad catalog # M60-009RDPD) and analyzed by Luminex®-based ELISA using human EGF beads (Bio-Plex Pro™ Human Cancer Biomarker Panel 2 EGF Set#171BC603M), or followed by analysis using the Bio-Plex® 200 Systems (BioRad) according to the manufacturer's instructions. Data are reported as mean concentrations and standard deviations of triplicate wells.

[6] = tested on: Human primary proximal tubule epithelial cells (PTEC); experiment: EGF assay, supernatant of primary PTEC cells
Protocol: Prior to treatment with oligonucleotides the primary PTEC cells were seeded into collagen I-coated 96-well plates (Corning, 356407) at a density of 40 000 and 20 000 cells/well respectively in PTEC medium and grown until confluence.
as §5, §6
For analysis of human EGF, cell supernatants were thawed on ice, diluted 1:2 and 1:10 in sample dilution buffer (BioRad catalog # M60-009RDPD) and analyzed by Luminex®-based ELISA using human EGF beads (Bio-Plex Pro™ Human Cancer Biomarker Panel 2 EGF Set#171BC603M), or followed by analysis using the Bio-Plex® 200 Systems (BioRad) according to the manufacturer's instructions. Data are reported as mean concentrations and standard deviations of triplicate wells. An increase of EGF levels above 200% was considered as predictive for nephrotoxicity.

PTEC-TERT1 cells [7] = experiment: Morphological changes of PTEC-TERT1 cells upon oligonucleotide treatment; type: cell-based, human; conditions: 100 μM oligonucleotide, 7 days, bright field microscopy, vs saline
Protocol: PTEC-TERT1 cells were cultures as described in the “Materials and methods” section. To mimic the physiological exposure of renal tubules to circulating naked oligonucleotide (i.e. without assistance of delivery technology, herein termed gymnosis or gymnotic delivery), confluent monolayers of PTEC-TERT1 cells were exposed to an aqueous solution of 100 μM oligonucleotide. The medium was replaced every three days including 100 μM fresh oligonucleotide in the fresh medium.
After 7 days of treatment the morphological alterations in the treated cell cultures were investigated under bright field microscopy.

PTEC-TERT1 cells [8] = tested on: PTEC-TERT1 cells
Protocol: as §4, §5, §6, §7

PTEC-TERT1 cells [9] = tested on: PTEC-TERT1 cells; remark: listed apart in the source
Protocol: as §4, §5, §6
For analysis of human KIM-1, cell supernatants were thawed on ice, diluted 1:2 and 1:10 in sample dilution buffer (BioRad catalog # M60-009RDPD) and analyzed by Luminex®-based ELISA using human KIM-1 beads (Human Kidney Injury panel 4, Millipore HKI4MAG-99K-KIM1) followed by analysis using the Bio-Plex® 200 Systems (BioRad) according to the manufacturer's instructions. Data are reported as mean concentrations and standard deviations of triplicate wells. An increase of KIM-1 levels above 200% was considered as predictive for nephrotoxicity.

[10] = PTEC-TERT1, Day 3, 11 μM (Table 3)
[11] = PTEC-TERT1, Day 3, 33 μM (Table 3)
[12] = PTEC-TERT1, Day 3, 100 μM (Table 3)
[13] = PTEC-TERT1, Day 7, 11 μM (Table 3)
[14] = PTEC-TERT1, Day 7, 33 μM (Table 3)
[15] = PTEC-TERT1, Day 7, 100 μM (Table 3)
[16] = PTEC-TERT1, Day 10, 11 μM (Table 3)
[17] = PTEC-TERT1, Day 10, 33 μM (Table 3)
[18] = PTEC-TERT1, Day 10, 100 μM (Table 3)

## AATgctacaaaaCCCA (antisense AATGCTACAAAACCCA; sugars from the 5' end l3 d9 l4, backbone and methylation of C not given here) [Compound 2-1]
A549 cells [1]; 1 ng oligonucleotide
  ATP: 96 % saline
A549 cells [1]; 10 ng oligonucleotide
  ATP: 59 % saline
[2]; day 3, 10 μM
  EGF: 122 % saline
[2]; day 3, 100 μM
  EGF: 211 % saline
[3]; 40 mg/kg on days 1 and 8, assessed day 15, 40 mg/kg
  In vivo nephrotoxicity / in vivo grade of toxicity: low and Low
A549 cells [4]; 1 ng oligonucleotide
  EGF: 80 % saline
A549 cells [4]; 10 ng oligonucleotide
  EGF: 161 % saline
PCSK9 mRNA; PTEC-TERT1, EGF 0 ng/ml in medium
  PCSK9 mRNA: 1.73 % of saline
PCSK9 mRNA; PTEC-TERT1, EGF 10 ng/ml in medium
  PCSK9 mRNA: 1.02 % of saline
PTEC-TERT1 cells [5]; [10]
  EGF: 135 % saline
PTEC-TERT1 cells [5]; [11]
  EGF: 192 % saline
PTEC-TERT1 cells [5]; [12]
  EGF: 172 % saline
PTEC-TERT1 cells [5]; [13]
  EGF: 69 % saline
PTEC-TERT1 cells [5]; [14]
  EGF: 88 % saline
PTEC-TERT1 cells [5]; [15]
  EGF: 117 % saline
PTEC-TERT1 cells [5]; [16]
  EGF: 47 % saline
PTEC-TERT1 cells [5]; [17]
  EGF: 63 % saline
PTEC-TERT1 cells [5]; [18]
  EGF: 154 % saline

## CGTcagtatgcgAATc (CGTCAGTATGCGAATC; chemistry not given here) [Compound 1-1]
[6]; Day 3, 3 μM
  EGF: 95 % saline
[6]; Day 3, 10 μM
  EGF: 99 % saline
[6]; Day 3, 30 μM
  EGF: 112 % saline
[6]; Day 3, 100 μM
  EGF: 120 % saline
[6]; Day 6, 3 μM
  EGF: 62 % saline
[6]; Day 6, 10 μM
  EGF: 71 % saline
[6]; Day 6, 30 μM
  EGF: 77 % saline
[6]; Day 6, 100 μM
  EGF: 98 % saline
PTEC-TERT1 cells [7]
  morphological changes: did not show any morphological changes
A549 cells [1]; 1 ng oligonucleotide
  ATP: 89 % saline
A549 cells [1]; 10 ng oligonucleotide
  ATP: 100 % saline
[2]; day 3, 10 μM
  EGF: 123 % saline
[2]; day 3, 100 μM
  EGF: 159 % saline
A549 cells [4]; 1 ng oligonucleotide
  EGF: 69 % saline
A549 cells [4]; 10 ng oligonucleotide
  EGF: 75 % saline
PTEC-TERT1 cells [5]; PTEC-TERT1, Day 3, 3 μM (Table 2)
  EGF: 88 % saline
PTEC-TERT1 cells [5]; PTEC-TERT1, Day 3, 10 μM (Table 2)
  EGF: 93 % saline
PTEC-TERT1 cells [5]; [10]
  EGF: 145 % saline
PTEC-TERT1 cells [5]; PTEC-TERT1, Day 3, 30 μM (Table 2)
  EGF: 108 % saline
PTEC-TERT1 cells [5]; [11]
  EGF: 214 % saline
PTEC-TERT1 cells [5]; PTEC-TERT1, Day 3, 100 μM (Table 2)
  EGF: 119 % saline
PTEC-TERT1 cells [5]; [12]
  EGF: 137 % saline
PTEC-TERT1 cells [5]; PTEC-TERT1, Day 6, 3 μM (Table 2)
  EGF: 124 % saline
PTEC-TERT1 cells [5]; PTEC-TERT1, Day 6, 10 μM (Table 2)
  EGF: 152 % saline
PTEC-TERT1 cells [5]; PTEC-TERT1, Day 6, 30 μM (Table 2)
  EGF: 180 % saline
PTEC-TERT1 cells [5]; PTEC-TERT1, Day 6, 100 μM (Table 2)
  EGF: 172 % saline
PTEC-TERT1 cells [5]; [13]
  EGF: 94 % saline
PTEC-TERT1 cells [5]; [14]
  EGF: 122 % saline
PTEC-TERT1 cells [5]; [15]
  EGF: 135 % saline
PTEC-TERT1 cells [5]; [16]
  EGF: 32 % saline
PTEC-TERT1 cells [5]; [17]
  EGF: 41 % saline
PTEC-TERT1 cells [5]; [18]
  EGF: 59 % saline

## Compound 20-1: antisense oligonucleotide comprising 2′-O-methoxyethyl-RNA (MOE) modifications, targeting sodium-glucose co-transporter 2 (SGLT2), SEQ ID NO 20 (GGCATGAGCTTC; MOE modifications, pattern not given here)
PTEC-TERT1 cells [8]
  prediction of in vivo nephrotoxicity with EGF as biomarker: could be predicted
[3]; 40 mg/kg on days 1 and 8, assessed day 15
  In vivo nephrotoxicity / in vivo grade of toxicity: low/medium
PTEC-TERT1 cells [9]
  predictive KIM-1 elevation: observed
